# Activity calls are given as the source filed them. The rule behind the calls is not given here.
# Assays:
# [1] = molecular target: T1, Lysine-specific demethylase 6B (Homo sapiens, UniProt O15054)
# Description: Inhibition of JMJD3 (unknown origin) using biotinylated H3K27me3 peptide as substrate after 1 hr by AlphaLISA assay
# [2] = molecular target: T1, Lysine-specific demethylase 6B; assay: Inhibition of JMJD3 (unknown origin) using biotinylated H3K27me3 peptide as substrate at 10 uM after 1 hr by AlphaLISA assay
# [3] = molecular target: CYP2D6 (Homo sapiens, UniProt P10635); assay: Inhibition of CYP2D6 in human liver microsomes at 10 uM after 20 mins; type: ADME
# [4] = Half life in human liver microsomes at 1 uM by LC/MS/MS analysis; type: ADME
# [5] = Intrinsic clearance in human liver microsomes at 1 uM up to 30 mins by LC/MS/MS analysis; type: ADME; details: read-out: CLH
# [6] = molecular target: CYP2C9 (Homo sapiens, UniProt P11712); assay: Inhibition of CYP2C9 in human liver microsomes at 10 uM after 20 mins; type: ADME
# [7] = molecular target: T2, CYP1A2 (Homo sapiens, UniProt P05177); assay: Inhibition of CYP1A2 in human liver microsomes at 10 uM after 20 mins; type: ADME
# T2 sequence (P05177 whole entry): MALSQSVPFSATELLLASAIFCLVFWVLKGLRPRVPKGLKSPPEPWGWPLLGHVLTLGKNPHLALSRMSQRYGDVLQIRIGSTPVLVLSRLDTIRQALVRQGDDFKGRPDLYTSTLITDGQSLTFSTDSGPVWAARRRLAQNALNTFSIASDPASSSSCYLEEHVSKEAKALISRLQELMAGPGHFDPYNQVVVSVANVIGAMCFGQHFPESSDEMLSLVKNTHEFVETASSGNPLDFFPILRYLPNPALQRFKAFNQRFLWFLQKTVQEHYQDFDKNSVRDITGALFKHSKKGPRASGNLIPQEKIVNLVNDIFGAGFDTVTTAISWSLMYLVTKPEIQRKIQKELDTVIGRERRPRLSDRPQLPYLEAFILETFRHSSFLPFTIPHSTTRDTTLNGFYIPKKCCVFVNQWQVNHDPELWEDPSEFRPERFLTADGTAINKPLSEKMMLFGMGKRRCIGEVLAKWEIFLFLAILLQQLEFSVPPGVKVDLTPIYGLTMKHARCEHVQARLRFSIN
# [8] = molecular target: CYP2C19 (Homo sapiens, UniProt P33261); assay: Inhibition of CYP2C19 in human liver microsomes at 10 uM after 20 mins; type: ADME
# [9] = molecular target: CYP3A4 (Homo sapiens, UniProt P08684); assay: in vitro; details: liver microsomes
# Description: Inhibition of CYP3A4 in human liver microsomes at 10 uM after 20 mins
# [10] = system: RAW264.7; assay: Inhibition of LPS-induced TNFalpha production in mouse RAW264.7 cells 0.82 uM after 24 hrs by ELISA; type: functional, cell-based
# [11] = system: RAW264.7; assay: Inhibition of LPS-induced TNFalpha production in mouse RAW264.7 cells after 24 hrs by ELISA; type: functional, cell-based
# Chain of CYP3A4 (P08684 whole entry): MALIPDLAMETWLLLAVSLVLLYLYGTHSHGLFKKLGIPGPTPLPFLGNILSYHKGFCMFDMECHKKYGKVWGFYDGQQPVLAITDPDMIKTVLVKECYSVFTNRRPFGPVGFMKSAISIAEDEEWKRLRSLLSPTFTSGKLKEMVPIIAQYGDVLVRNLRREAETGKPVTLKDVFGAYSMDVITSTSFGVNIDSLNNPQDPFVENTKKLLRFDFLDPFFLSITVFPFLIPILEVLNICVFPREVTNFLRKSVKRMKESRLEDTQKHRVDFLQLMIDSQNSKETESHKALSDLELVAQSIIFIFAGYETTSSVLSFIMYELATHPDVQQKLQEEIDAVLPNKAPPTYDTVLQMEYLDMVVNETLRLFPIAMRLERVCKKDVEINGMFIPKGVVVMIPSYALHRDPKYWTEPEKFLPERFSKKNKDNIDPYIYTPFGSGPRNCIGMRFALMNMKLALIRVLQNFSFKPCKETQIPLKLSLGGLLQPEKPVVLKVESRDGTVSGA
# Chain of CYP2C9 (P11712 whole entry): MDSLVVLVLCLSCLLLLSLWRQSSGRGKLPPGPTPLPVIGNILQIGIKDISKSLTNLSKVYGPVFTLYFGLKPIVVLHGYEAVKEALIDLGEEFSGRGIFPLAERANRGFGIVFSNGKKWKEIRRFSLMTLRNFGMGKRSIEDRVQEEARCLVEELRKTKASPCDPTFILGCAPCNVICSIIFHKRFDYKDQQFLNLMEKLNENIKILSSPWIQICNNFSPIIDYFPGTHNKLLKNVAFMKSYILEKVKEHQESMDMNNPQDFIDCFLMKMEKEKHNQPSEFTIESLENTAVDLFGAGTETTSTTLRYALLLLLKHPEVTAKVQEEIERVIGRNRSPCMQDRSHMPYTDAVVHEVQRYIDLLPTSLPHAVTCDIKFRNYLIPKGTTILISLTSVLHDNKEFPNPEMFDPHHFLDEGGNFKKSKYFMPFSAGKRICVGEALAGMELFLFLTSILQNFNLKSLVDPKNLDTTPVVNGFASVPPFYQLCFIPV
# Chain of CYP2D6 (P10635 whole entry): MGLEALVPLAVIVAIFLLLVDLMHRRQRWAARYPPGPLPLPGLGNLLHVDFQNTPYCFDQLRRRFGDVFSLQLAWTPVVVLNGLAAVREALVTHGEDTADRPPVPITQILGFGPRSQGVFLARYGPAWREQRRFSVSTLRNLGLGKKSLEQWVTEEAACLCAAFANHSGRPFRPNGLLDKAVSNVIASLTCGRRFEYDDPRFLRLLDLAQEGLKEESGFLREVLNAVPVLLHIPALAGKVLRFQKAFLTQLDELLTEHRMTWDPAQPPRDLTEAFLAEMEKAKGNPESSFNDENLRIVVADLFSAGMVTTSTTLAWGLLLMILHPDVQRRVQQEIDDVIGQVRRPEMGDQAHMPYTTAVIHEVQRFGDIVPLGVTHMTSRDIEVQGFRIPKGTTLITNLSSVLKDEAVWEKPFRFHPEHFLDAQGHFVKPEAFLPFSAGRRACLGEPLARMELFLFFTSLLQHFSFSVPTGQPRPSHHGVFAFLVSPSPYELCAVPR
# T1 sequence (O15054 whole entry): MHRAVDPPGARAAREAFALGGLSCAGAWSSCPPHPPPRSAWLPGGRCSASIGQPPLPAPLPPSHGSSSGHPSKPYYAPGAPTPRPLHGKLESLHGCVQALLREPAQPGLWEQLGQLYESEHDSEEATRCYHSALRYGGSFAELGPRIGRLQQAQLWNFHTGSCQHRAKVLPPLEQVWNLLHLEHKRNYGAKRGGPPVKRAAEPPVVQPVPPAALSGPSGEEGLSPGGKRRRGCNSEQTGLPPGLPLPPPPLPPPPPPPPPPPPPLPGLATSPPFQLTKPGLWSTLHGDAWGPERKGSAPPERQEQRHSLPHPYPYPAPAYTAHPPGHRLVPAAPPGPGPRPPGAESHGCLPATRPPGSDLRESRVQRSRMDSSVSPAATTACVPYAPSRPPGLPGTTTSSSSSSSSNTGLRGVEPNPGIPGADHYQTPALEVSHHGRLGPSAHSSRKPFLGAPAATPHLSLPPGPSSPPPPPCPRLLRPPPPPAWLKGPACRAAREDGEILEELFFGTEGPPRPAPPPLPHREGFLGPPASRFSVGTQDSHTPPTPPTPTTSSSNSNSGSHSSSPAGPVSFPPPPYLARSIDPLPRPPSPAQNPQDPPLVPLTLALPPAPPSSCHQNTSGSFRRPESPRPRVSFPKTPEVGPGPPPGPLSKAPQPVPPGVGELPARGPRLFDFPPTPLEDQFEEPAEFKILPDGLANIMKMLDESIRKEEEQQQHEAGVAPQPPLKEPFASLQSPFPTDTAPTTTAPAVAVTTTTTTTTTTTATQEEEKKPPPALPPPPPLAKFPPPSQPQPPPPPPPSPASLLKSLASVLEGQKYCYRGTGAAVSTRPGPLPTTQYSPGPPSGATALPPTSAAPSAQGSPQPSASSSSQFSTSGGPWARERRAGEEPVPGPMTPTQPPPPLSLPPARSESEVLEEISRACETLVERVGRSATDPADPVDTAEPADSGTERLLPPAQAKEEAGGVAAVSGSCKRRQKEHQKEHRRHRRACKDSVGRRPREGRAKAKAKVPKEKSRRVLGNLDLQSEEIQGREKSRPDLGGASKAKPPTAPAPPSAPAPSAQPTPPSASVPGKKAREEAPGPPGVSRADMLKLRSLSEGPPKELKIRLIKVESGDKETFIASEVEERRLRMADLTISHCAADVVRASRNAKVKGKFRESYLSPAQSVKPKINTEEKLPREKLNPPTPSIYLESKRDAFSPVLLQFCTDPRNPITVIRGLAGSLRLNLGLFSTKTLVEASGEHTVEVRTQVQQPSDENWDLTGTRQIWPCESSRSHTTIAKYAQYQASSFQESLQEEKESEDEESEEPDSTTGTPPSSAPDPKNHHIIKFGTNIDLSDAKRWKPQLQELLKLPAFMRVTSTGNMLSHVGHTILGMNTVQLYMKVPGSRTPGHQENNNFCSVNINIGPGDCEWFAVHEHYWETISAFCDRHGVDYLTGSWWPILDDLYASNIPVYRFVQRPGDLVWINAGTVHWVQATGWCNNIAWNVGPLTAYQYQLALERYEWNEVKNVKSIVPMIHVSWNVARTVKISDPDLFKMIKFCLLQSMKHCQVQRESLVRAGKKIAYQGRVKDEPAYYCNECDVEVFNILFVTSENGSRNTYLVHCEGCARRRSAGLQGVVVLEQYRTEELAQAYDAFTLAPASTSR
# Chain of CYP2C19 (P33261 whole entry): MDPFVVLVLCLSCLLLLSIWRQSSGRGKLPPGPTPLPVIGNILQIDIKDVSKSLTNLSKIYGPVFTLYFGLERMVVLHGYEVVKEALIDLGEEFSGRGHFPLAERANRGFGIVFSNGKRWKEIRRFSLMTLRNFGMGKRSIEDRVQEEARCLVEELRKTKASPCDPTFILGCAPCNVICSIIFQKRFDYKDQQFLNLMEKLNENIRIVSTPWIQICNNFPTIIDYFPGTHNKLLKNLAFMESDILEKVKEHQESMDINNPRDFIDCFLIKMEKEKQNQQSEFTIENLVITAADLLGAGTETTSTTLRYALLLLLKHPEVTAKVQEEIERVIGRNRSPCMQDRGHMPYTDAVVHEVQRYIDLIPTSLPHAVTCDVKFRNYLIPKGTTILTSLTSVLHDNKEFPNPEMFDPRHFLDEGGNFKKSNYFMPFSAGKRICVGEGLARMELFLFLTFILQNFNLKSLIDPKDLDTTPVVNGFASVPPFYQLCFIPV
compound,measurement,setting,value
O=C(O)CCNc1nc(N2CCN(c3ccccn3)CC2)cc(-n2cccn2)n1,IC50,[1],1000 nM
O=C(O)CCNc1nc(N2CCN(c3ccc(F)cc3)CC2)cc(-n2cccn2)n1,IC50,[1],550 nM
COc1ccccc1N1CCN(c2cc(-n3cccn3)nc(NCCC(=O)O)n2)CC1,IC50,[1],> 20000 nM
O=C(O)CCNc1nc(N2CCN(c3ccc(Cl)c(Cl)c3)CC2)cc(-n2cc3ccccc3n2)n1,IC50,[1],> 100000 nM
O=C(O)CCNc1nc(-c2nccs2)cc(N2CCN(c3ccc(Cl)c(Cl)c3)CC2)n1,IC50,[1],940 nM
O=C(O)CCNc1nc(N2CCN(c3ccc(Cl)c(Cl)c3)CC2)cc(-n2ccnn2)n1,inhibition,[2],74%
O=C(O)CCNc1nc(N2CCC(c3ccccc3)CC2)cc(-n2ccnn2)n1,IC50,[1],2100 nM
CC(C)(C)OC(=O)NC1CCN(c2cc(-c3nccs3)nc(NCCC(=O)O)n2)CC1,inhibition,[2],9.8%
O=C(O)CCNc1nc(-c2nccs2)cc(N2CCc3ccccc3CC2)n1,"inhibition at 20 min, 10 µM",[3],8%
same,half-life at 1 µM,[4],4.44 h
same,microsomal CLint at 1 µM,[5],5 µL/min/mg
same,"inhibition at 20 min, 10 µM",[6],9%
same,IC50,[1],200 nM
same,"inhibition at 20 min, 10 µM",[7],9%
same,"inhibition at 20 min, 10 µM",[8],13%
same,"inhibition at 20 min, 10 µM",[9],12%
O=C(O)CCNc1nc(N2CCc3ccccc3C2)cc(-n2cccn2)n1,IC50,[1],490 nM
O=C(O)CCNc1nc(N2CCc3ccccc3CC2)cc(-n2cc3ccccc3n2)n1,"inhibition at 20 min, 10 µM",[3],0%
same,half-life at 1 µM,[4],4.28 h
same,microsomal CLint at 1 µM,[5],5 µL/min/mg
same,"inhibition at 20 min, 10 µM",[6],17%
same,IC50,[1],2200 nM
same,"inhibition at 20 min, 10 µM",[7],8%
same,"inhibition at 20 min, 10 µM",[8],11%
same,"inhibition at 20 min, 10 µM",[9],4%
O=C(O)CCNc1nc(-c2nccs2)cc(N2CCc3ccccc3C2)n1,IC50,[1],990 nM
O=C(O)CCNc1nc(-c2nccs2)cc(N2CCN(c3ccc(F)cc3)CC2)n1,IC50,[1],600 nM
O=C(O)CCNc1nc(N2CCN(c3ccc(F)cc3)CC2)cc(-n2nccn2)n1,IC50,[1],2600 nM
O=C(O)CCNc1nc(N2CCc3ccccc3CC2)cc(-n2nccn2)n1,"inhibition at 20 min, 10 µM",[3],6%
same,half-life at 1 µM,[4],38.5 h
same,microsomal CLint at 1 µM,[5],1 µL/min/mg
same,"inhibition at 20 min, 10 µM",[6],4%
same,IC50,[1],270 nM
same,"inhibition at 20 min, 10 µM",[7],4%
same,"inhibition at 20 min, 10 µM",[8],4%
same,"inhibition at 20 min, 10 µM",[9],7%
O=C(O)CCNc1nc(N2CCC(c3ccccc3)CC2)cc(-n2cccn2)n1,IC50,[1],750 nM
Cc1ccccc1CNc1cc(-c2nccs2)nc(NCCC(=O)O)n1,inhibition,[2],-0.6%
CC(C)NC(=O)CN1CCN(c2cc(-c3nccs3)nc(NCCC(=O)O)n2)CC1,inhibition,[2],-5.1%
O=C(O)CCNc1nc(NCc2cc(C(F)(F)F)cc(C(F)(F)F)c2)cc(-c2nccs2)n1,inhibition,[2],1%
O=C(O)CCNc1nc(NC2CCN(Cc3ccccc3)CC2)cc(-c2nccs2)n1,inhibition,[2],10%
O=C(O)CCNc1nc(N2CCC(c3ccccc3)CC2)cc(-n2nccn2)n1,IC50,[1],1200 nM
O=C(O)CCNc1nc(N2CCN(c3ccc(F)cc3)CC2)cc(-n2cc3ccccc3n2)n1,IC50,[1],5800 nM
O=C(O)CCNc1nc(N2CCc3ccccc3C2)cc(-n2nccn2)n1,IC50,[1],1500 nM
CCOC(=O)CCNc1nc(N2CCc3ccccc3CC2)cc(-n2ccnn2)n1,inhibition,[10],Active
same,inhibition,[11],Active
O=C(O)CCNc1nc(N2CCN(c3ccccn3)CC2)cc(-n2cc3ccccc3n2)n1,inhibition,[2],54%
COc1ccccc1N1CCN(c2cc(-n3nccn3)nc(NCCC(=O)O)n2)CC1,IC50,[1],> 20000 nM
O=C(O)CCNc1nc(N2CCC(c3ccccc3)CC2)cc(-n2cc3ccccc3n2)n1,inhibition,[2],30%
CCOC(=O)CCNc1nc(N2CCc3ccccc3CC2)cc(-n2cccn2)n1,inhibition,[10],Active
same,inhibition,[11],Dose-dependent effect
O=C(O)CCNc1nc(N2CCc3ccccc3CC2)cc(-n2ccnn2)n1,"inhibition at 20 min, 10 µM",[3],6%
same,half-life at 1 µM,[4],> 11.6 h
same,"inhibition at 20 min, 10 µM",[6],1%
same,IC50,[1],210 nM
same,"inhibition at 20 min, 10 µM",[7],1%
same,"inhibition at 20 min, 10 µM",[8],8%
same,"inhibition at 20 min, 10 µM",[9],7%
CN(Cc1ccco1)c1cc(-c2nccs2)nc(NCCC(=O)O)n1,inhibition,[2],43.9%
O=C(O)CCNc1nc(NC2Cc3ccccc3C2)cc(-c2nccs2)n1,inhibition,[2],21.1%
CC(=O)N1CCN(c2cc(-c3nccs3)nc(NCCC(=O)O)n2)CC1,inhibition,[2],32.9%
COc1cc(CNc2cc(-c3nccs3)nc(NCCC(=O)O)n2)cc(OC)c1,inhibition,[2],-8.7%
CCOC(=O)CCNc1nc(N2CCc3ccccc3CC2)cc(-n2nccn2)n1,inhibition,[10],Active
same,inhibition,[11],Dose-dependent effect
O=C(O)CCNc1nc(-c2nccs2)cc(N2CCC(N3CCCC3)CC2)n1,inhibition,[2],-8.4%
O=C(O)CCNc1nc(N2CCc3ccccc3CC2)cc(-n2cccn2)n1,"inhibition at 20 min, 10 µM",[3],5%
same,half-life at 1 µM,[4],> 11.6 h
same,"inhibition at 20 min, 10 µM",[6],5%
same,IC50,[1],150 nM
same,"inhibition at 20 min, 10 µM",[7],5%
same,"inhibition at 20 min, 10 µM",[8],3%
same,"inhibition at 20 min, 10 µM",[9],3%
O=C(O)CCNc1nc(-c2nccs2)cc(N2CCC(c3ccccc3)CC2)n1,IC50,[1],1200 nM
CCOC(=O)CCNc1cc(N2CCc3ccccc3CC2)nc(-c2ccccn2)n1,inhibition,[10],Active
same,inhibition,[11],Active
O=C(O)CCNc1nc(N2CCN(c3ccc(Cl)c(Cl)c3)CC2)cc(-n2nccn2)n1,IC50,[1],1400 nM
Cc1ccccc1C1CCN(c2cc(-c3nccs3)nc(NCCC(=O)O)n2)CC1,inhibition,[2],87.5%
O=C(O)CCNc1nc(N2CCc3ccccc3C2)cc(-n2ccnn2)n1,IC50,[1],1400 nM
O=C(O)CCNc1nc(N2CCN(c3ccc(Cl)c(Cl)c3)CC2)cc(-n2cccn2)n1,IC50,[1],740 nM
O=C(O)CCNc1cc(N2CCc3ccccc3CC2)nc(-c2ccccn2)n1,"inhibition at 20 min, 10 µM",[3],20%
same,half-life at 1 µM,[4],8.25 h
same,microsomal CLint at 1 µM,[5],3 µL/min/mg
same,"inhibition at 20 min, 10 µM",[6],5%
same,"inhibition at 20 min, 10 µM",[7],10%
same,"inhibition at 20 min, 10 µM",[8],16%
CCOC(=O)CCNc1nc(-c2nccs2)cc(N2CCc3ccccc3CC2)n1,inhibition,[10],Active
same,inhibition,[11],Active
COc1ccccc1N1CCN(c2cc(-c3nccs3)nc(NCCC(=O)O)n2)CC1,IC50,[1],2100 nM
O=C(O)CCNc1nc(N2CCN(c3ccc(F)cc3)CC2)cc(-n2ccnn2)n1,IC50,[1],10000 nM
O=C(O)CCNc1nc(N2CCN(c3ccccn3)CC2)cc(-n2nccn2)n1,IC50,[1],1300 nM
O=C(O)CCNc1nc(-c2nccs2)cc(N2CCN(c3ccccn3)CC2)n1,IC50,[1],900 nM
O=C(O)CCNc1nc(N2CCc3ccccc3C2)cc(-n2cc3ccccc3n2)n1,IC50,[1],6100 nM
